From patent US5298502A, “Method and composition for photodynamic treatment and detection of tumors” (priority 1991, dated 1994)

Experiments:
mosquito larvae = experiment: Insecticidal test against mosquito larvae; details: in vivo
HeLa cells [1] = experiment: Proto IX production in HeLa cells, extract of cells alone (Example 7); format: cell-based; details: Homo sapiens, 100 uM agent, first formula (background-subtracted), read-out: increase in the amount of Proto IX relative to the control
Experimental: In a series of experiments along the lines of Examples 1 and 2, cultures of HeLa cells were incubated in the presence of 100 uM of various treating agents, listed below. The percentage given, next to each treating agent, indicates the increase in the amount of Proto IX produced in the presence of that treating agent relative to the amount produced by the control in the same experiment.
As in Examples 1 and 2, the data for this Example 7 were based on measurements of fluorescence (e.g. in counts per second, "cps"). In this Example, however, the measurements were made on an extract of the cells alone (in contrast to Examples 1 and 2 in which the disrupted cells and culture medium together were extracted), the fluorometric medium was the one described in Example 5 (containing 1% Tween-20, 50 mM Tris-HCl, 1 mM EDTA and 1 mM dithioerythritol, pH 8.5), and a cps measurement of the fluorometric medium per se was also made. In calculating the foregoing data for this Example, the following formula was used to calculate the percentage increases: [formula] where Ca is the counts per second for the sample resulting from treatment with the agent, Cc is the counts per second for the control sample, and Cm is the counts per second for the fluorometric medium per se (i.e. the background fluoroescence). On reviewing the data it was observed that Cc -Cm for this set of experiments was […] compared to Cm; for instance, individual measured values were 49025 and 52069 for Cc and 4295 for Cm. […] Accordingly, the data were recalculated using the formula: [formula] with the following results: 6a 336%; 5b 148%; 6c 154%; 6d 510%; 6e 320%; 6f 280%; 6g 329%; 6h 178%; 6i 171%; 6j 185%; 7a 118%; 7b 142%; 7c 103%; 7d 128%; 7e 173%; 7f 118%; 7q 155%; 7h 118%.

[2] = system: DBA/2 Ha mice with SMT-F subcutaneous tumors; experiment: Proto IX content of tissues of tumor-bearing mice fed the agent (Example 6); format: in vivo; details: for concentration of Proto IX in tissue, Adrenal / concentration of Proto IX in tissue, Intestine / concentration of Proto IX in tissue, Kidneys / concentration of Proto IX in tissue, Liver / concentration of Proto IX in tissue, Tumor / Proto IX Mean Cps per gram, Intestine: 2000 ppm in feed; for Proto IX Mean Cps per gram, Adrenal / Proto IX Mean Cps per gram, Kidneys / Proto IX Mean Cps per gram, Liver / Proto IX Mean Cps per gram, Tumor / Weight of Tumor as excised: 2000 ppm in feed Days 2-10, sacrificed Day 10 (6j Day 7)
Experimental: In this Example the enzyme-inhibiting agents were added to the feed of tumor-bearing mice; for some of the mice, used as a control, no agent was added to the feed. The mice were then sacrificed and their kidneys, intestines, adrenal glands, liver and tumor were removed and analyzed for their content of Proto IX. The following enzyme-inhibiting agents were employed: [drawing 10]
More particularly, the mice were DBA/2 Ha mice which had been injected with SMT-F subcutaneous tumors on Day 0 in the right shoulder. The mice, individually housed, received untreated Purina Rodent Chow 5001 Mash on Day 1; thereafter on Days 2 through 10 the mice received the same Mash treated with 2000 ppm of the inhibiting agent being tested (or, for the controls, the same untreated Mash). The treatment of the Mash was effected by blending it with a small amount of an acetone solution of the agent to be tested. The mice were then sacrificed on Day 10, except for the mouse treated with the agent designated as 6j; the latter was sacrificed on Day 7. The tissues were refrigerated at 4° C. overnight, then blotted dry, and the fresh weight of each tissue sample was recorded. The tissues were then homogenized in 5 mL, or lo mL in the cases of intestines and liver, of acetone-0.1 N NH4 OH (9:I, v/v). The homogenates were then centrifuged at 1500 g and the supernatants were analyzed on a SPEX FAII2 spectrofluorometer; excitation 400 nm, emission 630 nm wavelengths, the optima for Proto IX. Proto IX accumulation was determined as CPS (fluorescent counts per second emitted) per gram of tissue. The results are tabulated below (results are averages for two mice for each treatment, except for treatments with agents 6f, 6h, 6i and 6j in each of which only one mouse was treated): […]

HeLa cells [3] = experiment: Proto IX in HeLa cells and culture medium, cell growth observations (Example 8); format: cell-based, human; details: 100 μM agent
Experimental: In a manner similar to Examples 1 and 2, cultures of HeLa cells were incubated in the presence of 100 μM of various treating agents, listed below. The agent was added in dilute solution in dimethylsulfoxide (DMSO),and the controls contained 0.2% DMSO v/v. After such incubation the culture medium was poured off, removing it from the cells, the cells were loosened from the culture flasks by addition of 0.25% W/v trypsin Which remained in contact With the cells for 20 minutes at 37° C., after which a fluorometric medium was added to the flask. The fluorometric medium was the same as that described in Example 7 except that its pH was 6.5; this medium also acted as an extractant. The resulting extract was analyzed for proto IX content. The separated culture medium was also analyzed fluorometrically for Proto IX content. The pairs of percentages given, next to each treating agent, indicate the amount of Proto IX produced in the presence of that treating agent relative to the amount produced by the control in the same experiment; the first number of each pair relates to the concentration of Proto IX in the culture medium and the second number relates to the concentration in the cells. [drawing 12]

chondrosarcoma = experiment: Photodynamic treatment of chondrosarcoma in rats fed the agent (Example 9); format: in vivo, Sprague-Dawley rats; details: three rats, 2000 ppm in feed for 6 days, 630 nm light 270 J/cm^2
Experimental: Specifically, three Sprague-Dawley rats of average weight 120 g were placed on a diet of feed containing 2000 ppm of the agent for a period of 6 days. On day 3, chondrosarcoma was implanted into the right hind limb of each rat by injecting 0.3 mL of a suspension of the tumor cells (about one million tumor cells). On day 6 the right hind limb of each rat was shaven and depilated, the size of each tumor was measured, and the tumor area and surrounding skin were then exposed to non-thermal doses of 630 nm light for a total of 270 J/cm^2.
In another set of experiments, 20 of the rats were placed on the same diet as above (i.e. feed containing 2000 ppm of agent), provided ad libitum, for 10 days before the treatment with the light, and the injection of the tumor cell suspension was made after the animals had been on the diet for 7 days. Such an injection causes the formation of a tumor having a well defined vascular network within 1 to 2 days. At the time of the treatment with light the tumors had diameters of 5-8 mm and were free of evident necrosis.

[4] = samples diluted with 3 parts basic acetone to one part sample

Structure (SMILES)	activity against mosquito larvae (mosquito larvae)	activation at 100 µM (HeLa cells [1])	concentration of Proto IX in tissue, Adrenal [2]	concentration of Proto IX in tissue, Intestine [2]	concentration of Proto IX in tissue, Kidneys [2]	concentration of Proto IX in tissue, Liver [2]	concentration of Proto IX in tissue, Tumor [2]	Proto IX Mean Cps per gram, Adrenal [2]	Proto IX Mean Cps per gram, Kidneys [2]	Proto IX Mean Cps per gram, Liver [2]	Proto IX Mean Cps per gram, Tumor [2]	Weight of Tumor as excised [2]	Proto IX Mean Cps per gram, Intestine ([2]; undiluted samples (6j Day 7))	activity in the test in Example 8 (Proto IX production) (HeLa cells [3])	tumor regression on the day after light treatment (chondrosarcoma)	Proto IX Mean Cps per gram, Intestine [2, 4]
CCOC(=O)C(Cl)Cc1cc(-n2nc(C)n(C(F)F)c2=O)c(F)cc1Cl (centres unmarked)	active															
C#CCN1C(=O)C(F)Oc2cc(F)c(-n3nc(C)n(C(F)F)c3=O)cc21 (centres unmarked) [Agent 6g]		326%	18 ug of Proto IX per gram of tis	4 ug of Proto IX per gram of tis	6 ug of Proto IX per gram of tis	7 ug of Proto IX per gram of tis	2 ug of Proto IX per gram of tis	1984 Cps per gram × 10^3	606 Cps per gram × 10^3	803 Cps per gram × 10^3	166 Cps per gram × 10^3	250 mg	466 Cps per gram × 10^3			
C#CCN1C(=O)COc2cc(F)c(N=c3sc(=S)n4n3CCCC4)cc21 [Agent 6j]		469%	4 ug of Proto IX per gram of tis	5 ug of Proto IX per gram of tis	3 ug of Proto IX per gram of tis	5 ug of Proto IX per gram of tis	11 ug of Proto IX per gram of tis	491 Cps per gram × 10^3	315 Cps per gram × 10^3	538 Cps per gram × 10^3	1251 Cps per gram × 10^3	11 mg	572 Cps per gram × 10^3			
CC(C)Oc1cc(-n2c(=O)n3n(c2=O)CCCC3)c(F)cc1Cl [Agent 6h]		431%	21 ug of Proto IX per gram of tis	5 ug of Proto IX per gram of tis	5 ug of Proto IX per gram of tis	8 ug of Proto IX per gram of tis	3 ug of Proto IX per gram of tis	2259 Cps per gram × 10^3	585 Cps per gram × 10^3	914 Cps per gram × 10^3	298 Cps per gram × 10^3	192 mg	584 Cps per gram × 10^3			
CS(=O)(=O)NC(=O)c1cc(Oc2ccc(C(F)(F)F)cc2Cl)ccc1[N+](=O)[O-] [Compound 8c]														much less active than compound 6c	did not produce any regression of the tumors	
CCS(=O)(=O)Nc1cc(-n2nnn(CCCF)c2=O)c(F)cc1Cl [Compound 8h]	active															
CCCn1c(=O)ccc2cc(F)c(-n3nc(C)n(C(F)F)c3=O)cc21 [Agent 6f]		280%	51 ug of Proto IX per gram of tis	11 ug of Proto IX per gram of tis	6 ug of Proto IX per gram of tis	11 ug of Proto IX per gram of tis	4 ug of Proto IX per gram of tis	5611 Cps per gram × 10^3	661 Cps per gram × 10^3	1170 Cps per gram × 10^3	449 Cps per gram × 10^3	69 mg	1157 Cps per gram × 10^3			
COC(=O)c1cc(Oc2ccc(C(F)(F)F)cc2Cl)ccc1[N+](=O)[O-] [Agent 6b]		366%	23 ug of Proto IX per gram of tis	51 ug of Proto IX per gram of tis	22 ug of Proto IX per gram of tis	12 ug of Proto IX per gram of tis	14 ug of Proto IX per gram of tis	2529 Cps per gram × 10^3	2441 Cps per gram × 10^3	1261 Cps per gram × 10^3	1520 Cps per gram × 10^3	90 mg				5577 Cps per gram × 10^3
CCOC(=O)C(C)Oc1ccc(Oc2cc(-n3nc(C)n(C(F)F)c3=O)c(F)cc2Cl)cc1 (centres unmarked) [Agent 6a]	active	337%	60 ug of Proto IX per gram of tis	54 ug of Proto IX per gram of tis	99 ug of Proto IX per gram of tis	39 ug of Proto IX per gram of tis	11 ug of Proto IX per gram of tis	6572 Cps per gram × 10^3	10817 Cps per gram × 10^3	4291 Cps per gram × 10^3	1203 Cps per gram × 10^3	143 mg				5870 Cps per gram × 10^3
C#CCN1C(=O)COc2cc(F)c(-n3nc4c(c3Cl)CCCC4)cc21 [Agent 6i]		544%	337 ug of Proto IX per gram of tis	32 ug of Proto IX per gram of tis	37 ug of Proto IX per gram of tis	14 ug of Proto IX per gram of tis	9 ug of Proto IX per gram of tis	36940 Cps per gram × 10^3	4014 Cps per gram × 10^3	1510 Cps per gram × 10^3	932 Cps per gram × 10^3	20 mg	3454 Cps per gram × 10^3			
